Results as given in publication PMC11510191, “Exploring Benzo[h]chromene Derivatives as Agents against Protozoal and Mycobacterial Infections” (Pharmaceuticals, 2024).
Values after ≈ are worked out from the molar mass of the structure shown. Where two headings read alike, the source gives them in different places.

Assays:
E. faecalis (G+) = experiment: MIC broth microdilution; assay type: cell-based; details: Enterococcus faecalis, 24 h
M. fortuitum LIID-01 = experiment: MIC broth microdilution; assay type: cell-based; details: Mycolicibacterium fortuitum, LIID01, 72 h
M. abscessus LIID-02 = experiment: MIC broth microdilution; assay type: cell-based; details: Mycobacteroides abscessus, LIID02, 72 h
[1] = system: NCTC929 fibroblast cells (L929); experiment: Cytotoxicity on L929 fibroblasts (resazurin); details: L929 fibroblasts
[2] = Cytotoxicity on L929 fibroblasts (resazurin); details: mouse
M. luteus (G+) = experiment: MIC broth microdilution; assay type: cell-based; details: Micrococcus luteus, 24 h
S. typhi (G−) = experiment: MIC broth microdilution; assay type: cell-based; details: Salmonella enterica, 24 h
E. coli (G−) = experiment: MIC broth microdilution; assay type: cell-based; details: Escherichia coli, 24 h
M. abscessus LIID-03 = experiment: MIC broth microdilution; assay type: cell-based; details: Mycobacteroides abscessus, LIID03, 72 h
[3] = system: M. tuberculosis CIPTIR -D152; experiment: MIC broth microdilution; assay type: cell-based; details: Mycobacterium tuberculosis
[4] = system: Leishmania brazilensis (L. b) promastigotes; experiment: Leishmanicidal activity on L. braziliensis promastigotes (resazurin); details: for IC50: Leishmania, 48 h, read-out: Leishmanicidal Activity IC50—L. b; for Selectivity Index L929/ L. b: SI = CC50 L929/IC50 parasites
Protocol: (§1) The culture of L. braziliensis (MHOM/CO/88/UA301) and L. infantum (MCAN/ES/92/BCN83) was obtained from the Facultad de Farmacia, Universidad Complutense de Madrid, Spain.
(§2) The maintenance of the strains, the form of cultivation, and the isolation of shape promastigota followed the procedures described by Roldós et al. [8]. The promastigotes were grown at 22 °C in Schneider’s Drosophila medium supplemented with 20% FBS. The assay was performed using a modification of a previous method [47]. Promastigotes (2 × 10^6 parasites/well) were cultured in 96-well plastic plates. Compounds were dissolved in dimethylsulfoxide (DMSO). Different dilutions of the compounds up to a 200 µL final volume were added. After 48 h at 26 °C, 20 µL of 2 mM resazurin solution was added and the oxidation–reduction was quantified at 570 and 600 nm. The solution of resazurin was prepared at 2.5 mM in phosphate-buffered solution (PBS), pH 7.4, and filtered through 0.22 µM prior to use. All tests were carried out in triplicate. Resazurin sodium salt was obtained from Sigma–Aldrich (St. Louis, MO, USA) and stored at 4 °C protected from light. The efficacy of each compound was estimated by calculating the IC50 values.

[5] = system: Leishmania infantum (L. i) promastigotes; experiment: Leishmanicidal activity on L. infantum promastigotes (resazurin); details: for IC50: Leishmania infantum, 48 h, read-out: Leishmanicidal Activity IC50—L. i; for Selectivity Index L929/ L. i: SI = CC50 L929/IC50 parasites
Protocol: as §1, §2

[6] = system: M. tuberculosis ATCC H37Rv; experiment: MIC broth microdilution; assay type: cell-based; details: Mycobacterium tuberculosis, H37RV
M. abscessus LIID-01 = experiment: MIC broth microdilution; assay type: cell-based; details: Mycobacteroides abscessus, LIID01, 72 h
[7] = system: M. tuberculosis CIPTIR-F296; experiment: MIC broth microdilution; assay type: cell-based; details: Mycobacterium tuberculosis, CIPTIRF296
L. innocua (G+) = experiment: MIC broth microdilution; assay type: cell-based; details: Listeria innocua, 24 h
S. aureus (G+) = experiment: MIC broth microdilution; assay type: cell-based; details: Staphylococcus aureus, 24 h
P. aeruginosa (G−) = experiment: MIC broth microdilution; assay type: cell-based; details: Pseudomonas aeruginosa, 24 h
L. monocytogenes (G+) = experiment: MIC broth microdilution; assay type: cell-based; details: Listeria monocytogenes, 24 h
[8] = system: M. intracellulare LIID-02; experiment: MIC broth microdilution; assay type: cell-based; details: Mycobacterium intracellulare, LIID02
[9] = system: M. intracellulare LIID-01; experiment: MIC broth microdilution; assay type: cell-based; details: Mycobacterium intracellulare, LIID01
T. cruzi epimastigotes = experiment: Trypanocidal activity on T. cruzi epimastigotes (CL-B5 lacZ, CPRG); assay type: cell-based, Trypanosoma cruzi clone CL-B5; details: for Selectivity Index L929/ T. cruzi: SI = CC50 L929/IC50 parasites; for IC50: 72 h
Protocol: For in vitro studies of T. cruzi. the clone CL-B5 was used. Parasites were stably transfected with the Escherichia coli β-galactosidase gene (lacZ), provided by Facultad de Farmacia (Universidad Complutense de Madrid). Epimastigotes were grown at 28 °C in liver infusion tryptose broth (Difco, Detroit, MI, USA) with 10% fetal bovine serum (FBS) (Gibco, Carlsbad, CA, USA), penicillin (Ern S.A., Barcelona, Spain), and streptomycin (Reig Jofré S.A., Barcelona. Spain), as described previously, and harvested during the exponential growth phase. Briefly, the screening assay was performed in 96-well microplates (Sarstedt, Inc., Newton, NC, USA) with cultures that had not reached the stationary phase. Briefly, epimastigotes were seeded at 2 × 10^5 parasites/mL in 200 µL growth media. The plates were then incubated with the respective compounds at 28 °C for 72 h. Afterwards, 50 µL of CPRG solution was added, resulting in a final concentration of 200 µM. The plates were incubated at 37 °C for an additional 4 h and then read at 595 nm. Each concentration was tested in triplicate. […] These values were calculated from the sigmoidal dose–response curve adjustment using the statistical software program Graph-Pad Prims 3.0. Benznidazole was used as a reference drug.

B. cereus (G+) = experiment: MIC broth microdilution; assay type: cell-based; details: Bacillus cereus, 24 h
in vitro = details: mouse
[10] = Trypanosoma cruzi, epimastigotes, read-out: Trypanocidal Activity IC50 T. cruzi

Cc1ccc(S(=O)(=O)n2cc(CCCC(=O)Oc3c4c(c5ccccc5c3OC(=O)CCCc3cn(S(=O)(=O)c5ccc(C)cc5)nn3)OC(C)(C)C=C4)nn2)cc1 [Compound 3f]
MIC (E. faecalis (G+)): > 200 µg/mL
MIC (M. fortuitum LIID-01): 100 µg/mL (≈ 121 µM)
MIC (M. abscessus LIID-02): 100 µg/mL (≈ 121 µM)
Cytotoxicity (in words) [1]: no cytotoxicity
CC50 at 24 h [2]: 312 µM
MIC (M. luteus (G+)): 100 µg/mL (≈ 121 µM)
MIC (S. typhi (G−)): > 200 µg/mL
MIC (E. coli (G−)): 100 µg/mL (≈ 121 µM)
MIC (M. abscessus LIID-03): 100 µg/mL (≈ 121 µM)
MIC [3]: > 200 µg/mL
IC50 [4]: 17.6 µM
Selectivity Index L929/ L. b [4]: 18
IC50 [5]: 46.6 µM
Selectivity Index L929/ L. i [5]: 7
MIC [6]: > 200 µg/mL
MIC (M. abscessus LIID-01): 100 µg/mL (≈ 121 µM)
MIC [7]: > 200 µg/mL
MIC (L. innocua (G+)): 100 µg/mL (≈ 121 µM)
MIC (S. aureus (G+)): 100 µg/mL (≈ 121 µM)
MIC (P. aeruginosa (G−)): 100 µg/mL (≈ 121 µM)
MIC (L. monocytogenes (G+)): 100 µg/mL (≈ 121 µM)
MIC [8]: > 200 µg/mL
MIC [9]: 100 µg/mL (≈ 121 µM)
Selectivity Index L929/ T. cruzi (T. cruzi epimastigotes): 13
IC50 (T. cruzi epimastigotes; [10]): 24.7 µM
MIC (B. cereus (G+)): 100 µg/mL (≈ 121 µM)

Cc1ccc(S(=O)(=O)n2cc(CCC(=O)Oc3c4c(c5ccccc5c3OC(=O)CCc3cn(S(=O)(=O)c5ccc(C)cc5)nn3)OC(C)(C)C=C4)nn2)cc1 [Compound 2f]
MIC (E. faecalis (G+)): > 200 µg/mL
MIC (M. fortuitum LIID-01): > 200 µg/mL
MIC (M. abscessus LIID-02): > 200 µg/mL
Cytotoxicity (in words) [1]: most cytotoxic
CC50 at 24 h [2]: 31.8 µM
MIC (M. luteus (G+)): > 200 µg/mL
MIC (S. typhi (G−)): > 200 µg/mL
MIC (E. coli (G−)): > 200 µg/mL
MIC (M. abscessus LIID-03): > 200 µg/mL
MIC [3]: > 200 µg/mL
IC50 [4]: 14.5 µM
Selectivity Index L929/ L. b [4]: 2
IC50 [5]: 38.2 µM
Selectivity Index L929/ L. i [5]: 1
MIC [6]: > 200 µg/mL
MIC (M. abscessus LIID-01): > 200 µg/mL
MIC [7]: > 200 µg/mL
MIC (L. innocua (G+)): > 200 µg/mL
MIC (S. aureus (G+)): > 200 µg/mL
MIC (P. aeruginosa (G−)): > 200 µg/mL
MIC (L. monocytogenes (G+)): > 200 µg/mL
MIC [8]: > 200 µg/mL
MIC [9]: 50 µg/mL (≈ 62.7 µM)
Selectivity Index L929/ T. cruzi (T. cruzi epimastigotes): 2
IC50 (T. cruzi epimastigotes; Trypanosoma cruzi, read-out: Trypanocidal Activity IC50 T. cruzi, epimastigotes, 72 h): 21.4 µM
IC50 (T. cruzi epimastigotes; epimastigotes, read-out: Trypanocidal Activity IC50 T. cruzi): 21.1 µM
MIC (B. cereus (G+)): > 200 µg/mL

CC(=O)O[C@@H]1[C@@H](OC(C)=O)[C@H](OC(C)=O)CO[C@H]1n1cc(CCCC(=O)Oc2c3c(c4ccccc4c2OC(=O)CCCc2cn([C@@H]4OC[C@@H](OC(C)=O)[C@H](OC(C)=O)[C@H]4OC(C)=O)nn2)OC(C)(C)C=C3)nn1 [Compound 3e]
MIC (E. faecalis (G+)): > 200 µg/mL
MIC (M. fortuitum LIID-01): > 200 µg/mL
MIC (M. abscessus LIID-02): > 200 µg/mL
CC50 at 24 h [2]: > 256 µM
MIC (M. luteus (G+)): > 200 µg/mL
MIC (S. typhi (G−)): 100 µg/mL (≈ 96.8 µM)
MIC (E. coli (G−)): > 200 µg/mL
MIC (M. abscessus LIID-03): > 200 µg/mL
MIC [3]: > 200 µg/mL
IC50 [4]: > 256 µM
IC50 [5]: > 256 µM
MIC [6]: > 200 µg/mL
MIC (M. abscessus LIID-01): > 200 µg/mL
MIC [7]: > 200 µg/mL
MIC (L. innocua (G+)): > 200 µg/mL
MIC (S. aureus (G+)): > 200 µg/mL
MIC (P. aeruginosa (G−)): > 200 µg/mL
MIC (L. monocytogenes (G+)): > 200 µg/mL
MIC [8]: > 200 µg/mL
MIC [9]: 50 µg/mL (≈ 48.4 µM)
IC50 (T. cruzi epimastigotes; [10]): > 256 µM
MIC (B. cereus (G+)): > 200 µg/mL

CCCCCCCCCCCCCCCCOP(=O)([O-])OCC[N+](C)(C)C [Miltefosine, reference compound]
CC50 at 24 h (in vitro): 2750 µM
IC50 [4]: 64 µM
Selectivity Index L929/ L. b [4]: 43.0
IC50 [5]: 25.1 µM
Selectivity Index L929/ L. i [5]: 109.7
